From ChEMBL document CHEMBL1201862, “PubChem BioAssay data set” (2004) come the findings set out here.

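In this assay, cells in 96-well plates receive the compound at five concentrations for 48 hours. Endpoints are linearly interpolated between the surrounding concentrations. The concentration for 50% growth inhibition is given as GI50.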 The source made the active and inactive calls. Cut-off read from the data, not from the text of the source: active = GI50 up to about 1.1 µM and inactive = higher.

Common to all, as to assay: inhibition of tumour cell growth, NCI panel, 48 h
The subject of assay [1] is SK-MEL-2.
Assay [2] relates to HL-60.
The test system of assay [3] is LOX IMVI.
The subject of assay [4] is SK-MEL-5.
Assay [5] has as its system SNB-19.
The test system of assay [6] is EKVX.
Assay [7] has as its system HOP-92.
The subject of assay [8] is OVCAR-5.
For assay [9], the system named is K562.
Assay [10] deals with SF-539.
The subject of assay [11] is MDA-MB-231.
Assay [12] has as its system MOLT-4.
The subject of assay [13] is HCT-116.
For assay [14], the system named is SK-MEL-28.
Assay [15] deals with CCRF-CEM.
Assay [16] deals with UACC-62.
The test system of assay [17] is PC-3.
Assay [18] concerns MDA-N.
Assay [19] relates to SN12C.

Consider `C1CCNCC1.Oc1ncnc2[nH]cc(CN3CCCCC3)c12`, for which the GI50 is > 100 µM (inactive) in [1]; 19.8 µM (inactive) in assay [2]; > 100 µM (inactive) in assay [3]; > 100 µM (inactive) in [4]; > 100 µM (inactive) in assay [5]; > 100 µM (inactive) in assay [6]. The GI50 is 77.3 µM (inactive) in assay [7]; > 100 µM (inactive) in assay [8]; > 100 µM (inactive) in assay [9]; 71.4 µM (inactive) in [10]; > 100 µM (inactive) in [11]; 15.2 µM (inactive) in [12]. The GI50 in [13] is 15.7 µM (inactive); in assay [14] it was > 100 µM (inactive); in [15], 16.4 µM (inactive); in [16] it was 83.9 µM (inactive); in [17], > 100 µM (inactive); in [18] it was 30.4 µM (inactive). The GI50 in assay [19] is 48.8 µM (inactive).

Take `C/C(=N\NC(=S)N1CC2CCC(CC2)C1)c1cccc(C)n1`: the GI50 is 4.7 µM (inactive) in assay [1]; 0.01 µM (active) in assay [2]; 0.78 µM (active) in assay [3]; 1.96 µM (inactive) in assay [4]; 1.75 µM (inactive) in [5]; 0.488 µM (active) in assay [6]. For the same molecule, the GI50 is 2.2 µM (inactive) in assay [7]; 1.46 µM (inactive) in assay [8]; < 0.0112 µM (active) in [9]; 0.378 µM (active) in [10]; 0.224 µM (active) in [11]; 0.01 µM (active) in [12]. Moreover, the GI50 in assay [13] was < 0.0445 µM (active); in assay [14], 2.94 µM (inactive); in assay [15], 0.01 µM (active); in [16] it was 0.621 µM (active); in assay [17] it was 0.01 µM (active); in [18], 2.82 µM (inactive). Also, the GI50 in [19] was 0.566 µM (active).

With `CCCCCCOc1ccc(C(=O)N(C)O)cc1`, the GI50 was 32.4 µM (inactive) in assay [1]; 4.01 µM (inactive) in assay [2]; 7.52 µM (inactive) in [3]; 17.6 µM (inactive) in assay [4]; 24.2 µM (inactive) in [5]; 20.3 µM (inactive) in assay [6]. The GI50 in [7] is 21.1 µM (inactive); in assay [8] it was 67.3 µM (inactive); in assay [9], 8.83 µM (inactive); in [10], 15 µM (inactive); in assay [11], 41.9 µM (inactive); in assay [12], 4.97 µM (inactive). For the same molecule, the GI50 in assay [13] was 14.9 µM (inactive); in [14], 40.7 µM (inactive); in assay [15], 1.85 µM (inactive); in assay [16], 16.1 µM (inactive); in [17], 12.1 µM (inactive); in assay [18], 27.6 µM (inactive). The GI50 in assay [19] is 11.9 µM (inactive).

On to `Cc1cn([C@H]2[C@@H](CO)C[C@H]2O)c(=O)[nH]c1=O`, for which the GI50 in [1], in assay [2], in assay [3], in assay [4], in assay [6] and in assay [7] was > 100 µM (inactive) in each case. In addition, the GI50 in assay [8], in [9], in assay [10], in assay [11], in [12] and in assay [13] was > 100 µM (inactive) each time. Further, the GI50 in [14], in assay [15], in assay [17], in [18] and in assay [19] was > 100 µM (inactive) each time.

Consider `Nc1ccn(C2CC(O)C(COP(=O)(S)OC3CC(n4ccc(N)nc4=O)OC3CO)O2)c(=O)n1` (stereo not given), for which the GI50 in [1], in assay [2], in assay [3], in [4], in [5] and in assay [6] was > 100 µM (inactive) throughout. For the same molecule, the GI50 in assay [7], in [8], in assay [10], in assay [11], in assay [12] and in assay [13] was > 100 µM (inactive) throughout. Moreover, the GI50 in assay [14] was > 100 µM (inactive); in [15], > 100 µM (inactive); in assay [16] it was > 100 µM (inactive); in assay [17], > 100 µM (inactive); in assay [18], 4.93 µM (inactive); in assay [19], 52.4 µM (inactive).

In the case of `CC(=O)O[C@H]1C(=O)[C@]2(C)[C@@H](OC(=O)OCCC(O)CO)C[C@H]3OC[C@@]3(OC(C)=O)[C@H]2[C@H](OC(=O)c2ccccc2)[C@]2(O)C[C@H](OC(=O)[C@H](O)[C@@H](NC(=O)c3ccccc3)c3ccccc3)C(C)=C1C2(C)C` (stereo not given in full), the GI50 in assay [1] is 0.0265 µM (active); in assay [2], < 0.01 µM (active); in assay [3], < 0.01 µM (active); in assay [4], 0.0172 µM (active); in assay [5] it was 0.0445 µM (active); in [6], 0.121 µM (active). Moreover, the GI50 was 8.63 µM (inactive) in [7]; 0.0303 µM (active) in [8]; < 0.01 µM (active) in assay [9]; < 0.01 µM (active) in assay [10]; 0.0288 µM (active) in assay [11]; < 0.0106 µM (active) in [12]. The GI50 in assay [13] is < 0.01 µM (active); in assay [15] it was < 0.01 µM (active); in assay [16], 0.0108 µM (active); in assay [17] it was < 0.0128 µM (active); in assay [18] it was < 0.01 µM (active); in assay [19] it was < 0.0166 µM (active).

As for `CCCCCCC(=O)O[C@H]1CC[C@H]2[C@@H]3CCC4C/C(=N/NC(=O)c5cccc6c(=O)c7ccccc7[nH]c56)C=C(C)[C@]4(C)[C@H]3CC[C@]12C` (stereo not given in full), the GI50 in assay [1], in assay [2], in assay [3], in [4], in assay [5] and in [6] was > 25 µM (inactive) each time. In addition, the GI50 in [7], in assay [8], in [9], in assay [10], in assay [11] and in [12] was > 25 µM (inactive) in each case. Further, the GI50 in [13], in assay [15], in assay [16], in [17], in assay [18] and in assay [19] was > 25 µM (inactive) throughout.

Regarding `COc1cc2c(cc1OC)C/C(=N\O)c1cc(OC)c(OC)cc1/C=C\2`, the GI50 was 3.44 µM (inactive) in assay [1]; 3.03 µM (inactive) in assay [2]; 6.4 µM (inactive) in [3]; 1.95 µM (inactive) in assay [4]; 7.08 µM (inactive) in assay [5]; 10.7 µM (inactive) in assay [6]. Also, the GI50 in [7] is 43.8 µM (inactive); in [9] it was 4.86 µM (inactive); in assay [10], 4.22 µM (inactive); in [11] it was 5.87 µM (inactive); in [12], 6.41 µM (inactive); in assay [13] it was 3.82 µM (inactive). The GI50 in assay [14] was 4.6 µM (inactive); in assay [15], 13.1 µM (inactive); in assay [16], 6.81 µM (inactive); in [17], 10.2 µM (inactive); in [18], 1.42 µM (inactive); in assay [19], 10.4 µM (inactive).

In the case of `CCOC(=O)Cc1csc(NC(NC(=O)OCC)(C(=O)OCC)C(F)(F)F)n1` (stereo not given), the GI50 in [1], in assay [2], in assay [3], in assay [4], in [5] and in assay [6] was > 100 µM (inactive) in each case. Further, the GI50 was 56.6 µM (inactive) in assay [7]; > 100 µM (inactive) in [8]; > 100 µM (inactive) in assay [9]; > 100 µM (inactive) in assay [10]; > 100 µM (inactive) in [11]; > 100 µM (inactive) in assay [12]. Moreover, the GI50 in assay [13], in assay [14], in assay [15], in assay [17], in assay [18] and in assay [19] was > 100 µM (inactive) each time.

As to `O=C(O)CCC(NC(=O)c1ccc(Nc2nc3ccc(C(F)(F)F)cc3nc2C(=O)O)cc1)C(=O)O` (stereo not given), the GI50 in assay [1], in assay [2], in assay [3], in assay [4], in assay [5] and in assay [6] was > 100 µM (inactive) each time. Besides, the GI50 in [7], in assay [8], in assay [9], in assay [10], in assay [11] and in [12] was > 100 µM (inactive) in each case. The GI50 in assay [13], in assay [15], in assay [16], in assay [17], in assay [18] and in assay [19] was > 100 µM (inactive) in each case.

Take `C/C(CC(O)(C(F)(F)F)C(F)(F)F)=N\NC(N)=O`: the GI50 in assay [1], in [2], in assay [3], in assay [4], in [5] and in assay [6] was > 10 µM (inactive) throughout. Also, the GI50 in [7], in assay [9], in assay [10], in assay [11], in [12] and in assay [13] was > 10 µM (inactive) throughout. For the same molecule, the GI50 in [14], in assay [15], in assay [16], in assay [17], in [18] and in assay [19] was > 10 µM (inactive) throughout.
